Source: PMC11199699 (Scientific Reports, 2024)

What was measured:
[1] = system: T1, PSMK_RS04265 (type 3 L-KDFDH); assay: spectrophotometric NADH formation at […] nm, Lineweaver-Burk; assay type: biochemical, Phycisphaera mikurensis; details: 1.5 mM NAD+, 50 mM Tris-HCl pH 8.0, 30 °C
T1 construct: pQE-80L, N-terminal (His)6-tag, expressed in E. coli, Ni-NTA

[2] = system: T2, PEH01S_RS21285 (type 2 L-KDFDH); assay: as above; assay type: biochemical, Paenibacillus ehimensis; details: 1.5 mM NAD+, 50 mM Tris-HCl pH 8.0, 30 °C
T2 construct: pQE-80L, N-terminal (His)6-tag, expressed in E. coli, Ni-NTA

## C[C@H](O)[C@@H](O)CC(=O)C(=O)O [L-KDF]
[1]
  Km: 6.08 ± 0.15 mM
[2]
  Km: 0.529 ± 0.021 mM
